# Source: patent US10072038B2, “Crystal of ammonium N-acetylneuraminate anhydrate, and process for producing same” (KYOWA HAKKO BIO CO., LTD., priority 2015, dated 2018)
# How the values were obtained:
# [1] = cited from earlier work
# [2] = Degree of coloration when stored in a closed system at 60° C. (transmittance at 430 nm); assay type: physicochemical; details: for Transmittance T % 430 nm: stored in closed system at 60° C., solution 100 g/L in terms of an anhydrate, 1 cm
# Protocol: With respect to the crystal of NeuAc ammonium salt anhydrate and a crystal of known NeuAc dihydrate, the degree of coloration when stored in a closed system at 60° C. was compared, and the results are shown in Table 8. The degree of coloration is expressed by transmittance T % 430 nm=100×10^−A (A=Abs: 430 nm, 1 cm), which was obtained by dissolving each crystal at 100 g/L in terms of an anhydrate and performing measurement for the solution.
# [3] = normal temperature; cited from earlier work
# [4] = Weight change (moisture absorption) under an atmosphere of 25° C. and a humidity of 60%; assay type: physicochemical; details: humidity 60%; for weight increase due to moisture absorption: up to 24 h
# Protocol: With respect to the crystal of NeuAc ammonium salt anhydrate and the noncrystalline amorphous NeuAc ammonium salt acquired in Reference Example 1, the weight change under an atmosphere of 25° C. and a humidity of 60% was compared, and the results are shown in Table 5.
# [5] = Stability under high temperature conditions judged from melting point; assay type: physicochemical; details: inferred from melting point 166.2° C. vs around 105° C. of known monohydrate
# Protocol: (5) Measurement of Melting Point
# The measurement was performed using Melting Point M-565 (manufactured by BUCHI) according to the instruction book.
# In addition, the melting point of the crystal of NeuAc ammonium salt anhydrate is 166.2° C. and is higher than the melting point of around 105° C. of known NeuAc ammonium salt monohydrate salt.
# [6] = pH of aqueous solution of the crystal; assay type: physicochemical; details: aqueous solution at 100 g/L in terms of NeuAc ammonium salt
# Protocol: As for the pH, an aqueous solution at 100 g/L in terms of NeuAc ammonium salt was measured.
# [7] = Measurement of degree of solubility in water (HPLC of supernatant); assay type: physicochemical; details: FIG. 5; compared with crystal of known NeuAc dihydrate
# Protocol: (2) Measurement of Degree of Solubility
# A crystal of NeuAc ammonium salt anhydrate, or a crystal of known NeuAc dihydrate was added to water adjusted to the respective temperatures until each crystal remained undissolved and after keeping the solution for a sufficient time under stirring, the supernatant containing no crystal was collected, and the concentration of NeuAc therein was measured using the following HPLC conditions.
# Guard column: Shodex SUGAR SH-G ϕ6.0×50 mm
# Column: SUGAR SH1011 ϕ8.0×300 mm×2 columns in series
# Column temperature: 60° C.
# Buffer: an aqueous 0.005 mol/L sulfuric acid solution
# Detector: UV detector (wavelength: 210 nm)
# The degrees of solubility in water of the crystal of NeuAc ammonium salt anhydrate obtained above and a crystal of NeuAc dihydrate are illustrated in FIG. 5.
smiles,measurement,setting,value
"CC(=O)N[C@H]1[C@H]([C@H](O)[C@H](O)CO)OC(O)(C(=O)O)C[C@@H]1O (stereo partly drawn) [Dihydrate crystal, N-Acetylneuraminic acid, reference compound]",storage stability (discoloration of crystal and solution),[1],gradually discolored to dark brown
same,Transmittance T % 430 nm,[2]; 0 days,100.1%
same,Transmittance T % 430 nm,[2]; 3 days,73.26%
same,Transmittance T % 430 nm,[2]; 6 days,50.46%
same,degree of solubility,[3],about 100 g/L
"CC(=O)N[C@H]1[C@H]([C@H](O)[C@H](O)CO)OC(O)(C(=O)O)C[C@@H]1O.N (stereo partly drawn) [Crystal of ammonium salt, ammonium N-acetylneuraminate anhydrate]",Rate of weight change,[4]; elapsed time 0 h,0.00%
same,Rate of weight change,[4]; elapsed time 3 h,−0.08%
same,Rate of weight change,[4]; elapsed time 7 h,−0.10%
same,Rate of weight change,[4]; elapsed time 24 h,−0.06%
same,weight increase due to moisture absorption,[4]; listed as crystal of NeuAc ammonium salt anhydrate,a weight increase was not observed
same,coloration during storage,"[2]; closed system at 60° C., compared with crystal of known NeuAc dihydrate",extremely low
same,Transmittance T % 430 nm,[2]; 0 days,99.73%
same,Transmittance T % 430 nm,[2]; 3 days,98.87%
same,Transmittance T % 430 nm,[2]; 6 days,98.49%
same,stability under high temperature conditions,[5],stable even under high temperature conditions
same,pH,[6]; listed as Example 1,7.07
same,pH,[6]; listed as Example 2,6.60
same,pH,[6]; listed as Example 3,6.39
same,degree of solubility in water,[7],large degree of solubility compared with the degree of solubility of the crystal of known NeuAc dihydrate
"CC(=O)N[C@H]1[C@H]([C@H](O)[C@H](O)CO)OC(O)(C(=O)O)C[C@@H]1O.N (stereo partly drawn) [Noncrystalline amorphous, NeuAc ammonium salt, reference compound]",Rate of weight change,"[4]; elapsed time 3 h, ammonium salt",6.58%
same,Rate of weight change,"[4]; elapsed time 7 h, ammonium salt",10.4%
same,Rate of weight change,"[4]; elapsed time 24 h, ammonium salt",13.5%
same,weight increase due to moisture absorption,"[4]; listed as noncrystalline amorphous NeuAc ammonium salt, ammonium salt",marked weight increase due to moisture absorption
same,deliquescence,[4]; when 24 hours had passed,deliquesced
